From patent publication EP4653424A1, “PYRIDAZINONE PARP INHIBITOR, AND PREPARATION METHOD THEREFOR, AND PHARMACEUTICAL COMPOSITION AND USE THEREOF” (China Pharmaceutical University, priority 2023, dated 2024)

What was measured:
PARP7 enzyme = molecular target: T1, PARP7 enzyme (Homo sapiens, UniProt Q7Z3E1); test: PARP7 Chemiluminescent Assay Kit enzyme inhibition assay; type: biochemical; details: for inhibition at 0.1 µM: compound at 100 nM
T1 construct: purchased BPS Bioscience
T1 sequence (Q7Z3E1 1-657): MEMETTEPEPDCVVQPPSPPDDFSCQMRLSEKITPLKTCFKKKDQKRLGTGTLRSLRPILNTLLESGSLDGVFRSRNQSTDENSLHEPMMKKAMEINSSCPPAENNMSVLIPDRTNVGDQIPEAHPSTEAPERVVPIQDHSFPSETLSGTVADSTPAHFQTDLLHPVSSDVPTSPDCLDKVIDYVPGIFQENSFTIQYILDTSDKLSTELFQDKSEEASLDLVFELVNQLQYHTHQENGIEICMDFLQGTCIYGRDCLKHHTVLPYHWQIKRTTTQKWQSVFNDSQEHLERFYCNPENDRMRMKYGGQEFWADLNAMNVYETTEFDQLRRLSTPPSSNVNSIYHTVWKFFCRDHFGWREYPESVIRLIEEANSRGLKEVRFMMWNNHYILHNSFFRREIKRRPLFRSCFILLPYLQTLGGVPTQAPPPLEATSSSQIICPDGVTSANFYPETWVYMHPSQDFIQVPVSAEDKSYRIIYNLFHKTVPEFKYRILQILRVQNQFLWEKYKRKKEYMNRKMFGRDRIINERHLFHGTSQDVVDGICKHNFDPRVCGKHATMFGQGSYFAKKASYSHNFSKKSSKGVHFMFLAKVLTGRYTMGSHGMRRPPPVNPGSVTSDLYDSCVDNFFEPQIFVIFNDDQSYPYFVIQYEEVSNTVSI
Experimental: Example 60: Inhibitory activity of compounds against PARP7 enzyme
Materials: PARP7 Chemiluminescent Assay Kit, BPS Bioscience; DMSO, Sinopharm, Nivo, PerkinElmer.
Preparation of 10× PBS: 720 mg of KH2PO4, 45 g of NaCl, and 5.311 g of Na2HPO4·12H2O were dissolved in 500 mL of deionized water. The system was adjusted to pH 7.4, sterilized at 121 °C for 30 min, and cooled, and then preserved at 4 °C for later use.
Preparation of 1 × PBS: 10× PBS was diluted 10-fold with deionized water, i.e., 1 part of 10× PBS was diluted with 9 parts of deionized water.
Preparation of wash buffer: 1 × PBS containing 0.05% Tween-20.
Preparation of 1 × PARP buffer: (prepared right before use) 10× PARP buffer was diluted 10-fold with deionized water and placed on ice for later use.
According to the study requirements, the test compound was diluted to the desired concentration with 100% DMSO, and then diluted 10-fold with 1× PARP buffer to give a 10× compound working solution.
• a. 5× histone mixture was thawed on ice the day before the study; • b. 1× histone mixture was prepared by diluting 5× histone mixture into 1× histone mixture with 1× PBS; 25 µL of 1× histone mixture was added to each well of the test plate and incubated overnight at 4 °C; • c. 100 µL of the blocking buffer was taken per well and added to the test plate, and the plate was incubated at 25 °C for 90 min; • d. After the incubation was completed, the liquid in the test plate was discarded, and the plate was washed 3 times; • e. 2.5 µL of compound working solution was taken from each well and added to the test plate according to the experimental layout; a corresponding volume of 1× PARP buffer containing 10% DMSO was added to the positive control wells (Positive control), and a corresponding volume of 1× PARP buffer was added to the blank control wells (Blank); • f. After the enzyme was completely dissolved, the enzyme stock solution was diluted to 6 ng/µL with 1× PARP buffer; • g. The enzyme solution was added to a test well plate at 10 µL/well, and a corresponding volume of 1× PARP buffer was added to the blank control wells, where the enzyme amount was 60 ng/well. Note: this procedure should be performed on ice; • h. […] ELISA ECL Substrate A and ELISA ECL Substrate B in the kit were mixed in a ratio of 1:1, the mixed solution was added to the test plate at 50 µL/well, luminescence detection was immediately performed using Nivo, and the luminescence value (RLU) was read; • m. […] Enzyme inhibition = 1 - % Enzyme Activity; the IC 50 was calculated using GraphPad Prism 8.

Caco-2 cell = test: Caco-2 bidirectional (ABBA) permeability assay; type: in vitro ADME
Experimental: (§1) Materials: test compounds I-A-1, I-A-2, and RBN-2397.
(§2) • (1) Caco-2 cell plating • 1. 600 µL of cell culture medium and 100 µL of cell culture medium were added to the wells of […], respectively; • 2. Before cell inoculation, Transwell was pre-incubated at 37 °C and 5% CO2 for 1 h; • 3. 100 µL of cell suspension (4 × 10^5 cells/mL) was seeded into the culture medium and cultured at 37 °C, 5% CO2, and 95% relative humidity for 14-21 days; • 4. The cell culture medium was replaced once every other day in the first 7 days, and once every day after day 7; • 5. The transepithelial electrical resistance (TEER) of the monolayer membrane was measured using EVOM3. • (2) ABBA process • 1. The plate was washed twice with pre-heated HBSS (10 mM HEPES, pH 7.4) and then incubated at 37 °C for 30 min. • 2. Test compounds were prepared in 1 mM DMSO and diluted 200-fold to 5 µM with HBSS (10 mM HEPES, pH 7.4) and HBSS (100 µM Lucifer Yellow, 10 mM HEPES, pH 7.4). • 3. Apical to basal direction: 200 µL of 5 µM working solution (100 µM Lucifer Yellow) was added to the apical compartment, and 600 µL of HBSS (10 mM HEPES, pH 7.4) was added to the basal compartment. • 4. Basal to apical direction: 600 µL of 5 µM working solution was added to the basal compartment, and 200 µL of HBSS (100 µM Lucifer Yellow, 10 mM HEPES, pH 7.4) was added to the apical compartment. • 5. 100 µL of 5 µM working solution was transferred to a sample plate containing 400 µL of cold methanol, and IS* was C0. • 6. The cell plate was incubated at 37 °C, 5% CO2, and 95% relative humidity for 2 h. • 7. 5 µL of the working solution was transferred from the apical compartment and the basal compartment to the plate. After 0.5 h of incubation, the 427 nm excitation values and 536 nm emission values were read by the Lucifer Yellow leakage detector. • 8. After 2 h of incubation, 100 µL of the solution was transferred from the apical and basal compartments with IS* to a sample plate containing 400 µL of cold methanol. • 9. The sample plate was centrifuged at 3220 g for 40 min. • 10. 100 µL of the supernatant was transferred to an assay plate containing an appropriate volume of water for LC-MS/MS analysis. • (3) Calculation
(§3) The apparent permeability coefficient (Papp, cm/s) and the efflux ratio were calculated using Microsoft Excel. Papp = (VA × Cacceptor × 100)/(Area × Time × Cinitial,donor) [formula] Efflux Ratio = (Papp(B−A))/(Papp(A−B)) [formula] Table 3. Physicochemical properties of test compounds

[1] = Caco-2 bidirectional (ABBA) permeability assay; type: in vitro ADME; details: human, Caco-2
Experimental: as §1, §2, §3

Compound	IC50 (PARP7 enzyme) [nM]	inhibition at 0.1 µM (PARP7 enzyme) [%]	efflux ratio (Caco-2 cell; Caco-2, summary in words)	membrane permeability (Caco-2 cell; Caco-2, summary in words)	efflux ratio at 2 h, 5 µM ([1]; Papp(B-A)/Papp(A-B))	Papp A→B at 2 h, 5 µM ([1]; apical to basal, 5 µM, 2 h) [×10⁻⁶ cm/s]	Papp B→A at 2 h, 5 µM ([1]; basal to apical, 5 µM, 2 h) [×10⁻⁶ cm/s]	efflux ratio (Caco-2 cell; Papp(B-A)/Papp(A-B), Caco-2)	PappA→B (1E-6 cm/s) (Caco-2 cell; apical to basal, 5 µM, 2 h, Caco-2)	PappB→A (1E-6 cm/s) (Caco-2 cell; basal to apical, 5 µM, 2 h, Caco-2)
O=C(CCNc1cn[nH]c(=O)c1C(F)(F)F)c1ccccc1 [I-D-1, 5-((3-oxo-3-phenylpropyl)amino)-4-(trifluoromethyl)pyridazin-3(2 H)-one]	< 100	≥ 50								
O=c1[nH]ncc(NCC#Cc2ccccc2C(F)(F)F)c1C(F)(F)F [I-A-1, 4-trifluoromethyl-5-((3-(2-(trifluoromethyl)phenyl)prop-2-yn-1-yl)amino)pyridazin-3(2 H)-one]	< 100	≥ 50	lower efflux ratio	better membrane permeability	0.52	39.9	20.9			
C[C@@H](COCCC(=O)N1CCN(c2ncc(C(F)(F)F)cn2)CC1)Nc1cn[nH]c(=O)c1C(F)(F)F [RBN-2397, reference compound]				poor membrane permeability				5.9	4.1 1E-6 cm/s	24 1E-6 cm/s
